Reference: paper PMC12310023 (PLOS Neglected Tropical Diseases, 2025)
Like-named read-outs stand apart in the source and are kept apart here.

Key:
C. hominis TU502 isolate = assay: Calibr high-content imaging Cryptosporidium panel; format: cell-based, Cryptosporidium hominis; settings: Cryptosporidium hominis
HsSrC = HsSrC (Homo sapiens, UniProt P12931); assay: SrC enzyme inhibition; format: biochemical
Excerpt: […]. […] All other methods are specified in S1 File.

[1] = Plasma concentrations in calf model; format: in vivo; settings: after BKI-1708 5 mg/kg BID
[2] = Monkey PK (r15 PO 1, r16 IV 1 mg/kg); format: in vivo
[3] = tested on: panel of 71 common liability targets; assay: Cerep panel of 71 common liability targets; format: binding; settings: read-out: IC50s, all Cerep targets except AT2
Cl- channel (GABA-gated) = assay: Cerep binding assay
PPARУ = target: T1, PPARУ (Homo sapiens, UniProt P37231); assay: Cerep cellular and nuclear receptor functional assay; format: cell-based
T1 construct: Cerep (Eurofins, France)
T1 sequence (P37231 1-505): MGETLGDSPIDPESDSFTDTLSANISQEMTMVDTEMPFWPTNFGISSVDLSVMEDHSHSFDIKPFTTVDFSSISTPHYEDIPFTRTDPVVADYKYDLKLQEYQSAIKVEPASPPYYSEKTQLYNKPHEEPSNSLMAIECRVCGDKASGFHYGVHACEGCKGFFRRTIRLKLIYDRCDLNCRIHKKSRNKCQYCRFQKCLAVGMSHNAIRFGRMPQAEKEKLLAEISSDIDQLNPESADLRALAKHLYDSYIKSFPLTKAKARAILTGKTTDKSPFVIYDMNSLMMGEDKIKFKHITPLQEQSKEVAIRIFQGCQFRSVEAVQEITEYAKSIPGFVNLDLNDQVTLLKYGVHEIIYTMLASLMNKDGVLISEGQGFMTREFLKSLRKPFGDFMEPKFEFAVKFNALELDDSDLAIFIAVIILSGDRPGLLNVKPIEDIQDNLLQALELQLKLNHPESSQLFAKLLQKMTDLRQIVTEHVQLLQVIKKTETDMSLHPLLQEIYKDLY

5-HT2B = target: T2, 5-HT2B (Homo sapiens, UniProt P41595); assay: as above; format: cell-based
T2 construct: Cerep (Eurofins, France)
T2 sequence (P41595 whole entry): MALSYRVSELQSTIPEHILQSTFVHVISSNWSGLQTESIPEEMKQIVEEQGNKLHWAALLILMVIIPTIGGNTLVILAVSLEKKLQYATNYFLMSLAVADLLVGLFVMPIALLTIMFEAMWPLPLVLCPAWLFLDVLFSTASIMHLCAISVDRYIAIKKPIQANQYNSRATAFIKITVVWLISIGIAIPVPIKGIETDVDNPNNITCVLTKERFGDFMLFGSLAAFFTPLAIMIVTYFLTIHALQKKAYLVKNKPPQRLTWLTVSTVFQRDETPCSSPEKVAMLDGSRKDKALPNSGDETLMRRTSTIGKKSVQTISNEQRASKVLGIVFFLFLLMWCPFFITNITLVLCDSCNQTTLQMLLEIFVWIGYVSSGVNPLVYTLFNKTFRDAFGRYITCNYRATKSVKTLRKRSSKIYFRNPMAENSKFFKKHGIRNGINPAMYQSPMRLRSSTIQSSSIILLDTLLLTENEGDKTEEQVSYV

CYP2B6 [4] = target: T3, CYP2B6 (Homo sapiens, UniProt P20813); assay: in vitro; settings: recombinant CYP2B6 supersomes
T3 sequence (P20813 1-491): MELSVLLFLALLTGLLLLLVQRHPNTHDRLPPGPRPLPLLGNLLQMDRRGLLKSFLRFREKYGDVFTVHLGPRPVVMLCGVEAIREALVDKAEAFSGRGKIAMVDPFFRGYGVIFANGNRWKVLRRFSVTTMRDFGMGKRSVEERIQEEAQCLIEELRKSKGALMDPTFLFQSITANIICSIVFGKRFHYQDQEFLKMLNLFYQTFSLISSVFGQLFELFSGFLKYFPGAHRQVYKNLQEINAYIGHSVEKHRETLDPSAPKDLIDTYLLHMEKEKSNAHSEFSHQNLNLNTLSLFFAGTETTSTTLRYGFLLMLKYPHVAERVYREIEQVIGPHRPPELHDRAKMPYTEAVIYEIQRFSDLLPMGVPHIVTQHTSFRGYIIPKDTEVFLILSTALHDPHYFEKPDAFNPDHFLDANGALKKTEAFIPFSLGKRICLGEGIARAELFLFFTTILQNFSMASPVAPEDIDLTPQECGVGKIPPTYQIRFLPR

CYP2C8 = target: T4, CYP2C8 (Homo sapiens, UniProt P10632); assay: in vitro; settings: recombinant CYP2C8 supersomes
T4 sequence (P10632 1-490): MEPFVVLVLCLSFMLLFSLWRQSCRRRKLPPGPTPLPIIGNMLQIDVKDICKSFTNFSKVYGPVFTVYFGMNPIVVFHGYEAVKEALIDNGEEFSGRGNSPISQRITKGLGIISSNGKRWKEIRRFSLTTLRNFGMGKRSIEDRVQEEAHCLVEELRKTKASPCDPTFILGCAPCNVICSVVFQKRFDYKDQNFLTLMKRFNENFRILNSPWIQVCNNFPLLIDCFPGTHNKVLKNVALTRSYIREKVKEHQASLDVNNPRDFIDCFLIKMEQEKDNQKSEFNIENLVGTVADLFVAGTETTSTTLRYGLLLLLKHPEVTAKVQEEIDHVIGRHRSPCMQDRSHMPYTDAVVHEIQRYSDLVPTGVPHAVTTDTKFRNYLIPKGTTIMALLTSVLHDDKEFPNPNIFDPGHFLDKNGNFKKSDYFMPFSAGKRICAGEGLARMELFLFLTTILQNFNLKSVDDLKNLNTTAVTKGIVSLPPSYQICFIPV

hERG = hERG (Homo sapiens, UniProt Q12809); assay: cell-based
Sequence of hERG (Q12809 whole entry): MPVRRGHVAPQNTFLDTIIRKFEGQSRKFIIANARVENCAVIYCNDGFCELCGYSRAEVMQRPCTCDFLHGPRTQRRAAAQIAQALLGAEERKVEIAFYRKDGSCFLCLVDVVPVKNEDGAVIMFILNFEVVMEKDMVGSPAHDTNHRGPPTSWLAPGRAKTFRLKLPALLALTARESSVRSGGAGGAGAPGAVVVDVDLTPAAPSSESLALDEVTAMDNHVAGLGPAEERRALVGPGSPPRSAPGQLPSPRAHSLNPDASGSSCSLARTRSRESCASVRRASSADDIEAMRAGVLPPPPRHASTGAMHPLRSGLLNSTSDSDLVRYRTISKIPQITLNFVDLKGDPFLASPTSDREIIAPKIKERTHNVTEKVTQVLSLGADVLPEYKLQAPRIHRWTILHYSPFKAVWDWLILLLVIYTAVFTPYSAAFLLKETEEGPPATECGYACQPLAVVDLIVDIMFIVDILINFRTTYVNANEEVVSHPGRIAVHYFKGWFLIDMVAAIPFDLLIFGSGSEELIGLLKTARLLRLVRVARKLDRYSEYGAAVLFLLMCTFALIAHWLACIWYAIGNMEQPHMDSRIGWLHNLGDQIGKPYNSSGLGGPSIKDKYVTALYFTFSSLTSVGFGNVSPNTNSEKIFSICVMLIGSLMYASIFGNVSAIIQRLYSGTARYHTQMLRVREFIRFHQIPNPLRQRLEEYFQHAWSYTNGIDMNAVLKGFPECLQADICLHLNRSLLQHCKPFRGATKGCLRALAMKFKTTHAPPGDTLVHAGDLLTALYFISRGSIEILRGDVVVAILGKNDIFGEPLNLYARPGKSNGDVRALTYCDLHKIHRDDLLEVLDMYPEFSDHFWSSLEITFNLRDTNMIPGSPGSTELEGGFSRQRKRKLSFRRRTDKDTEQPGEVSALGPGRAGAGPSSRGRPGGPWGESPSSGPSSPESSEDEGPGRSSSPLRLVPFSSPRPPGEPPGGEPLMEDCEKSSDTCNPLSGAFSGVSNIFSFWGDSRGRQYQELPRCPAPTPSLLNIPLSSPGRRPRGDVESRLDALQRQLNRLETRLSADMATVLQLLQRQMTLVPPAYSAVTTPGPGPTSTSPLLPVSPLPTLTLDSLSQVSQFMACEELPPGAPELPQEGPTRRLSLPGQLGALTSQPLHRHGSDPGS

[5] = Liver microsome stability; settings: human, pooled liver microsomes
[6] = Plasma protein binding, equilibrium dialysis; settings: dog
[7] = Plasma levels in IFNγ-KO mouse efficacy model
CYP2B6 [8] = target: T3, CYP2B6; assay: CYP reaction phenotyping, recombinant supersomes
CYP2C9 = CYP2C9 (Homo sapiens, UniProt P11712); assay: CYP reaction phenotyping, recombinant supersomes
Sequence of CYP2C9 (P11712 whole entry): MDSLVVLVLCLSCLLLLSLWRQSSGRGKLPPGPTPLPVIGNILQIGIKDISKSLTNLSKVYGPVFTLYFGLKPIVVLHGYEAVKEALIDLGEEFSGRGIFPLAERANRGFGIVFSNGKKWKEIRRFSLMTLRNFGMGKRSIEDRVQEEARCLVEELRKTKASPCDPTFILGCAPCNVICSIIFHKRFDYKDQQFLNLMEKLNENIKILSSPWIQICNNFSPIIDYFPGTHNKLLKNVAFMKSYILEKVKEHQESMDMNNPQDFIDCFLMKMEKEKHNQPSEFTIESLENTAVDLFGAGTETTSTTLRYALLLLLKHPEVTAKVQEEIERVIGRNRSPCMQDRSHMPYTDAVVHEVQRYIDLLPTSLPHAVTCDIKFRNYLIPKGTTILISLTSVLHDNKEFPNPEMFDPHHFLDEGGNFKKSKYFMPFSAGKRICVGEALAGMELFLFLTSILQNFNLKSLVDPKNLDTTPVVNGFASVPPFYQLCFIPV

CYP2D6 = CYP2D6 (Homo sapiens, UniProt P10635); assay: CYP reaction phenotyping, recombinant supersomes
Sequence of CYP2D6 (P10635 whole entry): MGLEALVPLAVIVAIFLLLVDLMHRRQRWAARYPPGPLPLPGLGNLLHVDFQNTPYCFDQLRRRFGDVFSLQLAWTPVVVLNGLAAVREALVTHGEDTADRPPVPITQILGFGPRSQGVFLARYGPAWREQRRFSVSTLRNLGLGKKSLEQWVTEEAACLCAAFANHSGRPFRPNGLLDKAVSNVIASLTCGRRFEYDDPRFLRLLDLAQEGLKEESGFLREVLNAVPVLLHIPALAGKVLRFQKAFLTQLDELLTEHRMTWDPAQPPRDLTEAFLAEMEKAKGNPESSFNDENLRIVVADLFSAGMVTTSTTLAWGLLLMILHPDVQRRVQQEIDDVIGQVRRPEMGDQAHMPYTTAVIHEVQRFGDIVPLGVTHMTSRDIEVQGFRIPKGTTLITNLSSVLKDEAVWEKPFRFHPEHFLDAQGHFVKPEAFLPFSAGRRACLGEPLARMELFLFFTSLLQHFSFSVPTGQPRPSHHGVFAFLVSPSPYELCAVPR

[9] = read-out: IC50, antagonist effect

Sequence of HsSrC (P12931 whole entry): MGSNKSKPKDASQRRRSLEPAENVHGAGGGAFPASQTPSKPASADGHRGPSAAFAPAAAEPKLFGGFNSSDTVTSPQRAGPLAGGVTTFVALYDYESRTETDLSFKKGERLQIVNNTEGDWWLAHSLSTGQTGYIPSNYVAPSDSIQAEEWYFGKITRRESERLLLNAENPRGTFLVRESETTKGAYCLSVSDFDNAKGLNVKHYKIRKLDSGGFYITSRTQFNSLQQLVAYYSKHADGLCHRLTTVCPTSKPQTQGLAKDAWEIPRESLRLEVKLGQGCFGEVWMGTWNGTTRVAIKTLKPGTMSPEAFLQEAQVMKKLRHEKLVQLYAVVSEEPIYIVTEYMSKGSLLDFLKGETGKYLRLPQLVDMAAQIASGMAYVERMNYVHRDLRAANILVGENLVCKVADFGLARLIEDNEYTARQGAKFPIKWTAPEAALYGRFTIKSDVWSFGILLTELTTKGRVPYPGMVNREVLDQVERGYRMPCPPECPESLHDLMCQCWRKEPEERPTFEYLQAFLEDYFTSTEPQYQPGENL

## CC1(C)Cn2nc(-c3ccc4cc(OC5CC5)ccc4c3)c(C(N)=O)c2NC1O (centres unmarked) [M2]
C. hominis TU502 isolate
  EC50: 440 nM
  EC90: 1670 nM
C. hominis TU502 isolate; read-out: TU502 C. hominis Count EC50, Replicate 1
  EC50: 458 nM
C. hominis TU502 isolate; read-out: TU502 C. hominis Count EC50, Replicate 2
  EC50: 428 nM
C. hominis TU502 isolate; read-out: TU502 C. hominis Count EC90, Replicate 1
  EC90: 1930 nM
C. hominis TU502 isolate; read-out: TU502 C. hominis Count EC90, Replicate 2
  EC90: 1410 nM
HsSrC
  IC50: > 10000 nM
[1]
  average peak concentration of M2: 7.1 ± 4.4 µM
[2]; after BKI-1708 IV 1 mg/kg
  M2 AUC0-inf: 63 ± 9 µmol·min/L
[2]; after BKI-1708 PO 1 mg/kg
  M2 AUC0-inf: 58 ± 13 µmol·min/L
[3]
  IC50: > 10000 nM
Cl- channel (GABA-gated)
  IC50: 17000 nM
Cl- channel (GABA-gated); 10 μM, antagonist radioligand, mean
  % inhibition of control specific binding: 50.6%
PPARУ
  agonist effect: no effect up to 100 μM
PPARУ; [9]
  IC50: > 100000 nM
5-HT2B
  agonist effect: no effect up to 100 μM
5-HT2B; [9]
  IC50: 20000 nM
CYP2B6 [4]
  CLint scaled: 0.35 mL/min/kg
  half-life: 2.65 h
CYP2C8
  CLint scaled: < 1.78 mL/min/kg
  half-life: > 4 h
hERG
  IC50: 6200 nM
[5]
  CLint scaled: < 25 mL/min/kg
  half-life: > 2 h
  microsomal CLint: < 23.1 µL/min/mg
[6]
  fraction unbound: 0.1
[7]; M2 8 mg/kg x 3 days
  peak plasma exposure: 3.0 ± 1.0 µM
[7]; M2 15 mg/kg x 3 days
  peak plasma level: 6.8 ± 1.2 µM
[7]; M2 30 mg/kg x 3 days
  peak plasma level: 7.7 ± 3.6 µM
CYP2B6 [8]
  % contribution: 5.1%
  CLint: 0.044 µL/min/pmol
CYP2C9
  % contribution: 0.0%
  CLint: <0.029 µL/min/pmol
CYP2D6
  % contribution: 0.0%
  CLint: <0.029 µL/min/pmol
